One may read the inhibition as the drop in the measured response relative to a control, in per cent. The term IC50 denotes the concentration that gives 50% inhibition. A lower IC50 goes with greater potency in that assay.

In assay [1] the target is T1, recombinant human plasminogen activator inhibitor-1 (PAI-1) (Homo sapiens, UniProt P05121).
T1 construct: purchased Molecular Innovations, Royal Oak, Mich
Description: Primary screen for the PAI-1 inhibition (chromogenic tPA activity). It counts as biochemical. The note with it: pH 6.6; for inhibition at 10 µM: 10 μM test compound; for inhibition at 25 µM: 25 μM test compound. On the procedure: Test compounds are dissolved in DMSO at a final concentration of 10 mM, then diluted 100× in physiologic buffer. The inhibitory assay is initiated by the addition of the test compound (1-100 μM final concentration, maximun DMSO concentration of 0.2%) in a pH 6.6 buffer containing 140 nM recombinant human plasminogen activator inhibitor-1 (PAI-1; Molecular Innovations, Royal Oak, Mich.). Following a 1 hour incubation at room temperature, 70 nM of recombinant human tissue plasminogen activator (tPA) is added, and the combination of the test compound, PAI-1 and tPA is incubated for an additional 30 minutes. Following the second incubation, Spectrozyme-tPA (American Diagnostica, Greenwich, Conn.), a chromogenic substrate for tPA, is added and absorbance read at 405 nm at 0 and 60 minutes. Relative PAI-1 inhibition is equal to the residual tPA activity in the presence of the test compound and PAI-1. Control treatments include the complete inhibition of tPA by PAI-1 at the molar ratio employed (2:1), and the absence of any effect of the test compound on tPA alone.

The next assay concerns the target human PAI-1 (Homo sapiens, UniProt P05121). Nature of the assay: Assay for determining IC50 of inhibition of PAI-1 (tPA-coated plate, antibody detection). The note with it: active PAI-1 bound to tPA-coated plate; pH 7.5. It counts as binding. On the procedure: This assay is based upon the non-SDS dissociable interaction between tPA and active PAI-1. Assay plates are initially coated with human tPA (10 μg/ml). Test compounds of the present invention are dissolved in DMSO at 10 mM, then diluted with physiologic buffer (pH 7.5) to a final concentration of 1-50 μM. Test compounds are incubated with human PAI-1 (50 ng/ml) for 15 minutes at room temperature. The tPA-coated plate is washed with a solution of 0.05% Tween 20 and 0.1% BSA, then the plate is blocked with a solution of 3% BSA. An aliquot of the substituted pyrrole-indole/PAI-1 solution is then added to the tPA-coated plate, incubated at room temperature for 1 hour, and washed. Active PAL-1 bound to the plate is assessed by adding an aliquot of a 1:1000 dilution of the 33B8 monoclonal antibody against human PAI-1, and incubating the plate at room temperature for 1 hour (Molecular Innovations, Royal Oak, Mich.). […] The plate is incubated 45 minutes at room temperature, and color development is determined at OD405 nm. The quantitation of active PAI-1 bound to tPA at varying concentrations of the test compound is used to determine the IC50. Results are analyzed using a logarithmic best-fit equation. The assay sensitivity is 5 ng/ml of human PAI-1 as determined from a standard curve ranging from 0-100 ng/ml.

Each structure is given as a SMILES string.

T1 sequence (P05121 24-402): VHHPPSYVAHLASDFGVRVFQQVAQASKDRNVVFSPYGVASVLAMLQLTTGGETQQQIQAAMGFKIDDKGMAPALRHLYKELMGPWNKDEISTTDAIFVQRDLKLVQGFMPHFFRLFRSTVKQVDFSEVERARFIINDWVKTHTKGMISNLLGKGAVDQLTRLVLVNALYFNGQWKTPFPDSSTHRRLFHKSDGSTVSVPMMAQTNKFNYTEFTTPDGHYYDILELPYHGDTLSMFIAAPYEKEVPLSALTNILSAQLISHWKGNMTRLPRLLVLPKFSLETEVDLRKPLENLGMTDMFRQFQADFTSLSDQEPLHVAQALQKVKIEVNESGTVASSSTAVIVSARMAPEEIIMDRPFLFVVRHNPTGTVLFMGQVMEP
Chain of human PAI-1 (P05121 24-402): as above

As for `O=C(N[C@@H](Cc1ccccc1)C(=O)O)c1c(-c2ccccc2)c2cc(-n3cccc3)ccc2n1Cc1ccccc1` [Example 3, N-{[1-benzyl-3-phenyl-5-(1H-pyrrol-1-yl)-1H-indol-2-yl]carbonyl}-L-phenylalanine], in assay [1], the inhibition at 10 µM came to 15% and the inhibition at 25 µM turned out to be 52%.

Consider `CC(C)(C)c1ccc(-c2c(C(=O)O)n(Cc3ccccc3)c3ccc(-n4ccc5ccccc54)cc23)cc1` [Example 11, 1′-benzyl-3′-(4-tert-butylphenyl)-1′H-1,5′-biindole-2′-carboxylic acid], for which, in assay [1], the inhibition at 10 µM is 66% and the inhibition at 25 µM was 99%.

On to `O=C(N[C@@H](Cc1ccccc1)C(=O)O)c1[nH]c2ccc(-n3cccc3)cc2c1-c1ccccc1` [Example 12, N-{[3-phenyl-5-(1H-pyrrol-1-yl)-1H-indol-2-yl]carbonyl}-L-phenylalanine], for which, in assay [1], the inhibition at 10 µM was found to be 39% and the inhibition at 25 µM is 51%.

On to `O=C(O)c1c(-c2ccccc2)c2cc(-n3cccc3)ccc2n1Cc1ccc(-c2ccccc2)cc1` [Example 7, 1-(1,1′-biphenyl-4-ylmethyl)-3-phenyl-5-(1H-pyrrol-1-yl)-1H-indole-2-carboxylic acid], for which, in assay [1], the inhibition at 10 µM amounted to 56% and the inhibition at 25 µM was determined as 90%.

Consider `O=C(O)c1[nH]c2ccc(-n3cccc3)cc2c1-c1ccccc1` [Example 9, 3-phenyl-5-(1H-pyrrol-1-yl)-1H-indole-2-carboxylic acid], for which, in assay [1], the inhibition at 10 µM came out at 19% and the inhibition at 25 µM is 47%.

`O=C(O)c1c(-c2ccccc2)c2cc(-n3ccc4ccccc43)ccc2n1Cc1ccc(-c2ccccc2)cc1` [Example 8, 1′-(1,1′-biphenyl-4-ylmethyl)-3′-phenyl-1′H-1,5′-biindole-2′-carboxylic acid]: in assay [1], the inhibition at 10 µM came out at 60% and the inhibition at 25 µM turned out to be 79%.

Turning to `CC(C)(C)c1ccc(-c2c(C(=O)O)n(Cc3ccccc3)c3ccc(-n4cccc4)cc23)cc1` [Example 10, 1-benzyl-3-(4-tert-butylphenyl)-5-(1H-pyrrol-1-yl)-1H-indole-2-carboxylic acid], in assay [1], the inhibition at 10 µM is 49% and the inhibition at 25 µM came out at 90%.

Take `Cc1ccc(C)n1-c1ccc2c(c1)c(-c1ccccc1)c(C(=O)N[C@@H](CC(C)C)C(=O)O)n2Cc1ccccc1` [Example 6, N-{[1-benzyl-5-(2,5-dimethyl-1H-pyrrol-1-yl)-3-phenyl-1H-indol-2-yl]carbonyl}-L-leucine]: in assay [1], the inhibition at 10 µM came to 76% and the inhibition at 25 µM was 79%. The molecule further had an IC50 against human PAI-1 of 12.9 µM.

For `Cn1c(C(=O)N[C@@H](Cc2ccccc2)C(=O)O)c(-c2ccccc2)c2cc(-n3cccc3)ccc21` [Example 2, N-{[1-methyl-3-phenyl-5-(1H-pyrrol-1-yl)-1H-indol-2-yl]carbonyl}-L-phenylalanine], in assay [1], the inhibition at 10 µM came to 4% and the inhibition at 25 µM came to 61%.

Consider `O=C(O)c1c(-c2ccccc2)c2cc(-n3cccc3)ccc2n1Cc1ccccc1` [Example 1, 1-benzyl-3-phenyl-5-(1H-pyrrol-1-yl)-1H-indole-2-carboxylic acid], for which, in assay [1], the inhibition at 10 µM was found to be 12% and the inhibition at 25 µM was found to be 69%.

Turning to `Cc1ccc(C)n1-c1ccc2c(c1)c(-c1ccccc1)c(C(=O)O)n2Cc1ccccc1` [Example 5, 1-benzyl-5-(2,5-dimethyl-1H-pyrrol-1-yl)-3-phenyl-1H-indole-2-carboxylic acid], in assay [1], the inhibition at 10 µM came out at 23% and the inhibition at 25 µM amounted to 83%.

Regarding `CC(C)C[C@H](NC(=O)c1c(-c2ccccc2)c2cc(-n3cccc3)ccc2n1Cc1ccccc1)C(=O)O` [Example 4, N-{[1-benzyl-3-phenyl-5-(1H-pyrrol-1-yl)-1H-indol-2-yl]carbonyl}-L-leucine], in assay [1], the inhibition at 10 µM came to 18% and the inhibition at 25 µM was determined as 90%.

Values taken from patent US7265148B2, “Substituted pyrrole-indoles” (Wyeth, priority 2003, dated 2007).
